The source made the active and inactive calls. The calls are words filed in the database; no cut-off is given here.

Drawing on ChEMBL document CHEMBL1151296, “Ipomopsin, a New Biscoumarin from Ipomopsis aggregata” (J Nat Prod, 1984), this text covers Activity for one compound.

For assay [1], the system named is KB. In words: Cytotoxicity against human KB cells. It is filed as functional, cell-based.
The test system of assay [2] is P388. In words: Cytotoxicity against mouse P388 cells. The assay is classed as functional, cell-based.

`COc1cc2cc(-c3c(O)c(OC)cc4ccc(=O)oc34)c(=O)oc2cc1O`: the outcome in assay [1] and in assay [2] was inactive.
